Test results from article PMC7026418, “The kinase polypharmacology landscape of clinical PARP inhibitors” (Scientific Reports, 2020).
Read-outs that look alike come from different tables or passages of the source. Values belong to the compound of their own block, whether it stands above or below them.

Assays:
Experiment in all cases: biochemical
Design in all cases: DiscoveRx KINOMEscan active site-directed competition binding; percent of control kinase bound to immobilised ligand
CDK5 = CDK5 (Homo sapiens, UniProt Q00535)
PRKCQ = PRKCQ (Homo sapiens, UniProt Q04759)
PRKCQ, sequence (Q04759 whole entry): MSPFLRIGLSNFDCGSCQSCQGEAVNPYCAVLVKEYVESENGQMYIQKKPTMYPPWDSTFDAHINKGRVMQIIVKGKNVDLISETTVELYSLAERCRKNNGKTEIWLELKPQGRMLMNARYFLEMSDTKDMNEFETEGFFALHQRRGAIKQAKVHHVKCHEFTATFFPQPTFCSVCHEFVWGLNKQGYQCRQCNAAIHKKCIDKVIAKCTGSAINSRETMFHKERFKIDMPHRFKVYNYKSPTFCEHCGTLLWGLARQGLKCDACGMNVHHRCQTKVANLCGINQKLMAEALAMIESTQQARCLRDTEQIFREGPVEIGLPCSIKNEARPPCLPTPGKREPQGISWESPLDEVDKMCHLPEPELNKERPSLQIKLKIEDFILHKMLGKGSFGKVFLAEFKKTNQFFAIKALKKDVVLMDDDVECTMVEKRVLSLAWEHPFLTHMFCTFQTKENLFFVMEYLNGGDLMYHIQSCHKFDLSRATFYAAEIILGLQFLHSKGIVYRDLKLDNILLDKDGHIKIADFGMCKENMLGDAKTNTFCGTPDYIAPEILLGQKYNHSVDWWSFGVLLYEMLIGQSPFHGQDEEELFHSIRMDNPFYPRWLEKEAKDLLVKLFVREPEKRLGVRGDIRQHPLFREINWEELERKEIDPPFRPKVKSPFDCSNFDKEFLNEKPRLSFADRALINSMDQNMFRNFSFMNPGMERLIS

YANK3 = target: T1, YANK3 (Homo sapiens, UniProt Q86UX6)
T1 construct: gene STK32C
T1 sequence (Q86UX6 whole entry): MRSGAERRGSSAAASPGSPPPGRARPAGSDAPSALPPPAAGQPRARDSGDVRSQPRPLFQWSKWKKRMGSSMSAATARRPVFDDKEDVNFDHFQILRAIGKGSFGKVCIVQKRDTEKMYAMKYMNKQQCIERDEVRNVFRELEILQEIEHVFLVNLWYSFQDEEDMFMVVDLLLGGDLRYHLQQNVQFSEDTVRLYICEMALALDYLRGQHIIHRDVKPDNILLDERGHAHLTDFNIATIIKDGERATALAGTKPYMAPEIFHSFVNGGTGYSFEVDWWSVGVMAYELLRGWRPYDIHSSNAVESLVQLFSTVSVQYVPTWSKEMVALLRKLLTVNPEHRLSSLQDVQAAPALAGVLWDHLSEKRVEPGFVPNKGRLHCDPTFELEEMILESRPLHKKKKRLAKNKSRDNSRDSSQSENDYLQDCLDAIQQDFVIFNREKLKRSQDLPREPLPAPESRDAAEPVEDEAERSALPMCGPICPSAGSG

AMPK-alpha2 = target: T2, AMPK-alpha2 (Homo sapiens, UniProt P54646)
T2 construct: gene PRKAA2
T2 sequence (P54646 whole entry): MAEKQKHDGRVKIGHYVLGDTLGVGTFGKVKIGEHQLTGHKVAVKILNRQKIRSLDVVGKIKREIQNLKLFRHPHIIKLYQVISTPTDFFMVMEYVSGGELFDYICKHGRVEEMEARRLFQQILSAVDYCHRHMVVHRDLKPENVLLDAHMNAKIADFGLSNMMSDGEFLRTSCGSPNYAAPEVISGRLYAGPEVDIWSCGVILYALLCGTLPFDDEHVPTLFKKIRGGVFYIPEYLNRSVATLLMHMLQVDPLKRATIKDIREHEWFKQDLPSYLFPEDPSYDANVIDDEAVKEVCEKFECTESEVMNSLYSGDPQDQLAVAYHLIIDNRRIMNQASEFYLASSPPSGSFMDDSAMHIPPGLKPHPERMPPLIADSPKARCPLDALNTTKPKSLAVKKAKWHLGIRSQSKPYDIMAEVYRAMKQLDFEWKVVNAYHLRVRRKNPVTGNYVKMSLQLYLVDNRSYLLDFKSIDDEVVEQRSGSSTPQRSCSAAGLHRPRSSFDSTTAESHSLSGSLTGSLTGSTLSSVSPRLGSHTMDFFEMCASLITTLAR

MKNK1 = MKNK1 (Homo sapiens, UniProt Q9BUB5)
MKNK1, sequence (Q9BUB5 whole entry): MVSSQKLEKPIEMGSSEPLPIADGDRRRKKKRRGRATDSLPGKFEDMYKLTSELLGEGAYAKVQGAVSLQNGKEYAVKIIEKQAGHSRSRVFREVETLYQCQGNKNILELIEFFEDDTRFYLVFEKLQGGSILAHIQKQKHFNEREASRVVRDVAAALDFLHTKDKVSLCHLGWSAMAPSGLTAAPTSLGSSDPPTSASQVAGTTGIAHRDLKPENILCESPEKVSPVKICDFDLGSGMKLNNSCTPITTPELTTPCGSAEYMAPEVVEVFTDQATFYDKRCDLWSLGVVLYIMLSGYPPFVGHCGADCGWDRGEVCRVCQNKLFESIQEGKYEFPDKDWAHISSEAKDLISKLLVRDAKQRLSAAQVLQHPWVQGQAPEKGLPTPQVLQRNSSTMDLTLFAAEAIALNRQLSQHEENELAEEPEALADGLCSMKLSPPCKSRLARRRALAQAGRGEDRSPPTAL

ACVR1 = target: T3, ACVR1 (Homo sapiens, UniProt Q04771)
T3 sequence (Q04771 1-509): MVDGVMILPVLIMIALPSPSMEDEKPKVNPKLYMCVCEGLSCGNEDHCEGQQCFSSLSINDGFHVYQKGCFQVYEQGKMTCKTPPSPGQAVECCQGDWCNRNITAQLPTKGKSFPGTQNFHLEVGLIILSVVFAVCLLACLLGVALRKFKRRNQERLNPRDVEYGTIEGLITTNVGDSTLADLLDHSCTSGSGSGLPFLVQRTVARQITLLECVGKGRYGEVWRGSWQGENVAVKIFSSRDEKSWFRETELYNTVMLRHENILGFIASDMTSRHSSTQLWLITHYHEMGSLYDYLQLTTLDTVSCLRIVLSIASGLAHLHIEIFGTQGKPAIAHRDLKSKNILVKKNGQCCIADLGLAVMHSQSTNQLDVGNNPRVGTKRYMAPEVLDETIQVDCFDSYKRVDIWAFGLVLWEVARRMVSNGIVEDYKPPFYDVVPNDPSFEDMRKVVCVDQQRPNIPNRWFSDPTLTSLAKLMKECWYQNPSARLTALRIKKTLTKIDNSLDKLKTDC

[1] = target: T4, ABL1(Q252H)-phosphorylated (Homo sapiens, UniProt P00519, Q252H)
T4 construct: phosphorylated

AKT2 = AKT2 (Homo sapiens, UniProt P31751)
AKT2, sequence (P31751 whole entry): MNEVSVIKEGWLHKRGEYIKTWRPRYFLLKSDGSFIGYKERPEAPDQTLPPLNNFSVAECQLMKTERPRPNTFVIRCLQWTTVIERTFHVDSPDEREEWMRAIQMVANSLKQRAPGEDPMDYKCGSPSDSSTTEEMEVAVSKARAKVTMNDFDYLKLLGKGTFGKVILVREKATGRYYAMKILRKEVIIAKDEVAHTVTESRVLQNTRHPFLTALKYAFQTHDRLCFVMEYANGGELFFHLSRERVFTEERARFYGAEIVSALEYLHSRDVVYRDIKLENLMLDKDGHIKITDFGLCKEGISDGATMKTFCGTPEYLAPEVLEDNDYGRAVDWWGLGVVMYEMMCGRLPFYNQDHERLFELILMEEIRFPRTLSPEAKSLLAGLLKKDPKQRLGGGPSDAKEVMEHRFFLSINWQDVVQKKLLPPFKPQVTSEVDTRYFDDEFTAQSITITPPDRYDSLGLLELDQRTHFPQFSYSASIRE

PLK1 = PLK1 (Homo sapiens, UniProt P53350)
PLK1, sequence (P53350 whole entry): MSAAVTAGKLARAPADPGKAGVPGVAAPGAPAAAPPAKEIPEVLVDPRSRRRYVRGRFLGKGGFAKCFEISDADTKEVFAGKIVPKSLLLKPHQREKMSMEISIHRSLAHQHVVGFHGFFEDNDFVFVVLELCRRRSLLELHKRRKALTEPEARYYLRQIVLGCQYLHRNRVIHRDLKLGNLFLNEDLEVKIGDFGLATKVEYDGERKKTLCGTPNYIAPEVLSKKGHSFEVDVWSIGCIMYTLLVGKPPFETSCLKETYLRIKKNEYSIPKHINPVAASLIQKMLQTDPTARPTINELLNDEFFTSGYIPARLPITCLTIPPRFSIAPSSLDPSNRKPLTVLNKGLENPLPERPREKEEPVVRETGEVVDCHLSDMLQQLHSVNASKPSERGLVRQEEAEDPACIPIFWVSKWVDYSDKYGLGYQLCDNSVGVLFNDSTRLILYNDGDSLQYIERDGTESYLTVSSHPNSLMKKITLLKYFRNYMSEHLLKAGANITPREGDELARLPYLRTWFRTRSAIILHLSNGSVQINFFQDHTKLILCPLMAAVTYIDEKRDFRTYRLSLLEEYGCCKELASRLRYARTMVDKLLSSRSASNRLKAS

PRKD3 = target: T5, PRKD3 (Homo sapiens, UniProt O94806)
T5 sequence (O94806 1-890): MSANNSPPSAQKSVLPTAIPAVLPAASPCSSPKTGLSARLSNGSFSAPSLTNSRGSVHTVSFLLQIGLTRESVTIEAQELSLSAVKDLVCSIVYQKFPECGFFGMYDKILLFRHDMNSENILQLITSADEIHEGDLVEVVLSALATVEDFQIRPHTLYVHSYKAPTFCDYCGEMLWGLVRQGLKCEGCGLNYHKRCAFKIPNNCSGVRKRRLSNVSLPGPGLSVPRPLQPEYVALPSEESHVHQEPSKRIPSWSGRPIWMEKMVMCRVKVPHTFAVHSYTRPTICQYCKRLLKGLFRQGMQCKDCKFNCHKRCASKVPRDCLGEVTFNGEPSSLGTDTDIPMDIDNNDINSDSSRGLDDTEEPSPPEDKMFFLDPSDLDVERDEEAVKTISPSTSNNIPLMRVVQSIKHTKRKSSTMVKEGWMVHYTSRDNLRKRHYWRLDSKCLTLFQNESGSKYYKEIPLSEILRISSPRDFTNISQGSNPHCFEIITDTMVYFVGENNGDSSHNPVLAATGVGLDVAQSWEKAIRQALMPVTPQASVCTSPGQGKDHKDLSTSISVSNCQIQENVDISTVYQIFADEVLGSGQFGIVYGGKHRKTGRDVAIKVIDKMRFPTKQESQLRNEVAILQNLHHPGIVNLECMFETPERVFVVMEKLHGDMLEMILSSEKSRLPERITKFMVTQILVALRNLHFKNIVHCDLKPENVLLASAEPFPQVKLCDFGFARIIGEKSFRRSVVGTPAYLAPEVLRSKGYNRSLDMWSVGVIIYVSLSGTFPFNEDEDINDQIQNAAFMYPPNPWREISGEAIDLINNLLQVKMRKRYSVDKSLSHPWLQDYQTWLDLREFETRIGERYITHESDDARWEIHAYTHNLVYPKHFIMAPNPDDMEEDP

LIMK1 = LIMK1 (Homo sapiens, UniProt P53667)
LIMK1, sequence (P53667 whole entry): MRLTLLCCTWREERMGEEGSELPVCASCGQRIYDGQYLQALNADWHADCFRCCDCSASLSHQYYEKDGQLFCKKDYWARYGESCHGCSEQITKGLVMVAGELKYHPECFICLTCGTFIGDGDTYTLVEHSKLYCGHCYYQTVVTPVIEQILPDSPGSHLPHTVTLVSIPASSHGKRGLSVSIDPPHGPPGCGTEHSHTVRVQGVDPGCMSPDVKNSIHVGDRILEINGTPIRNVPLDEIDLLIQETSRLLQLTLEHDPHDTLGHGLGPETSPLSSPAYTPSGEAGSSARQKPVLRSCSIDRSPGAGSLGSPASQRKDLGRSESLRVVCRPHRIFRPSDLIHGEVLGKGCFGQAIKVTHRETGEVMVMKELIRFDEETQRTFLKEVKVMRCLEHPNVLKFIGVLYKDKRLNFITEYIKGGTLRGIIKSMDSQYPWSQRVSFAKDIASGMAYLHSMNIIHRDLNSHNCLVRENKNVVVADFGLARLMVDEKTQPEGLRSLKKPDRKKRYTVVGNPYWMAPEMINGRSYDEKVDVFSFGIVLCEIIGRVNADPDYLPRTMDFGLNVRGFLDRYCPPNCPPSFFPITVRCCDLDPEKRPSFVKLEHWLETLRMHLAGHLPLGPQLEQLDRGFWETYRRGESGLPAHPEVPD

PIK3CB = PIK3CB (Homo sapiens, UniProt P42338)
PIK3CB, sequence (P42338 whole entry): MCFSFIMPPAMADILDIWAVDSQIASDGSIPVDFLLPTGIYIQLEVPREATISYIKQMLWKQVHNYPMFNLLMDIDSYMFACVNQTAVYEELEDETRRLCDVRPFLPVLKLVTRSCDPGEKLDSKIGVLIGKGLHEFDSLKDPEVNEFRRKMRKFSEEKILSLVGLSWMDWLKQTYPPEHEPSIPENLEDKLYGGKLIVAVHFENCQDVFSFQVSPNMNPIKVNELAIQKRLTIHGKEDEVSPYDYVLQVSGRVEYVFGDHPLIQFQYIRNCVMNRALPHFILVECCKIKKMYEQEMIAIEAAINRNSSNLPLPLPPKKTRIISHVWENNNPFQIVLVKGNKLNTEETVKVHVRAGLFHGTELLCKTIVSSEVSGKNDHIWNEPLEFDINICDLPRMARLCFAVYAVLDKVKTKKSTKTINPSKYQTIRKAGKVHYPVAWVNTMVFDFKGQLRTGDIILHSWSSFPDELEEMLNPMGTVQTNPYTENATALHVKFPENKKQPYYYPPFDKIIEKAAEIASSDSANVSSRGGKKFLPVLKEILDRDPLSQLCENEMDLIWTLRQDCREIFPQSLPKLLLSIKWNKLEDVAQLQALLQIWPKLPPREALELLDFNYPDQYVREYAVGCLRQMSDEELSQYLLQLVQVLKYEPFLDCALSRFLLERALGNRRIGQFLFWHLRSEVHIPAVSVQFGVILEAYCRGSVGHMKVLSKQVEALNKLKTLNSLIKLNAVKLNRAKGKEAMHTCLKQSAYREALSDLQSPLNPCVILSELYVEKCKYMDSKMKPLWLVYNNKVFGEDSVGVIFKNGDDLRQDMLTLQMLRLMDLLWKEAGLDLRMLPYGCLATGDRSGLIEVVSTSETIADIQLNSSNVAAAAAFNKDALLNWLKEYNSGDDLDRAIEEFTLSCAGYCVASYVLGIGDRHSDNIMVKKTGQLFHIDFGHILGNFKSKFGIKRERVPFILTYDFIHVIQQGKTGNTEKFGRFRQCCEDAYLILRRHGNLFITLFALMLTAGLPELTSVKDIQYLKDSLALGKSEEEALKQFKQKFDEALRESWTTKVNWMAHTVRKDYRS

[2] = read-out: Niraparib (MK-4827) / %Ctrl @ 10000nM
[3] = read-out: Rucaparib / %Ctrl @ 10000nM, binding competition, % of control
[4] = read-out: Olaparib / %Ctrl @ 10000nM
[5] = read-out: Talazoparib (BMN 673) / %Ctrl @ 10000nM

Compound: NC(=O)c1cccc2cn(-c3ccc([C@@H]4CCCNC4)cc3)nc12 [Niraparib]
percent of control binding at 10 µM (CDK5; [2]): 90% | percent of control binding at 10 µM (PRKCQ; [2]): 73% | percent of control binding at 10 µM (YANK3; [2]): 86% | percent of control binding at 10 µM (AMPK-alpha2; [2]): 89% | percent of control binding at 10 µM (MKNK1; [2]): 100% | percent of control binding at 10 µM (ACVR1; [2]): 83% | percent of control binding at 10 µM [1, 2]: 51% | percent of control binding at 10 µM (AKT2; [2]): 93% | percent of control binding at 10 µM (PLK1; [2]): 100% | percent of control binding at 10 µM (PRKD3; [2]): 76% | percent of control binding at 10 µM (LIMK1; [2]): 82% | percent of control binding at 10 µM (PIK3CB; [2]): 100%

percent of control binding at 10 µM (CDK5; [3]): 88% | percent of control binding at 10 µM (PRKCQ; [3]): 93% | percent of control binding at 10 µM (YANK3; [3]): 72% | percent of control binding at 10 µM (AMPK-alpha2; [3]): 87% | percent of control binding at 10 µM (MKNK1; [3]): 97% | percent of control binding at 10 µM (ACVR1; [3]): 92% | percent of control binding at 10 µM [1, 3]: 72% | percent of control binding at 10 µM (AKT2; [3]): 87% | percent of control binding at 10 µM (PLK1; [3]): 66% | percent of control binding at 10 µM (PRKD3; [3]): 78% | percent of control binding at 10 µM (LIMK1; [3]): 100% | percent of control binding at 10 µM (PIK3CB; [3]): 83%
Compound: CNCc1ccc(-c2[nH]c3cc(F)cc4c3c2CCNC4=O)cc1 [Rucaparib]

percent of control binding at 10 µM (CDK5; [4]): 95% | percent of control binding at 10 µM (PRKCQ; [4]): 95% | percent of control binding at 10 µM (YANK3; [4]): 83% | percent of control binding at 10 µM (AMPK-alpha2; [4]): 93% | percent of control binding at 10 µM (MKNK1; [4]): 82% | percent of control binding at 10 µM (ACVR1; [4]): 96% | percent of control binding at 10 µM [1, 4]: 71% | percent of control binding at 10 µM (AKT2; [4]): 79% | percent of control binding at 10 µM (PLK1; [4]): 85% | percent of control binding at 10 µM (PRKD3; [4]): 83% | percent of control binding at 10 µM (LIMK1; [4]): 100% | percent of control binding at 10 µM (PIK3CB; [4]): 90%
Compound: O=C(c1cc(Cc2n[nH]c(=O)c3ccccc23)ccc1F)N1CCN(C(=O)C2CC2)CC1 [Olaparib]

percent of control binding at 10 µM (CDK5; [5]): 98% | percent of control binding at 10 µM (PRKCQ; [5]): 89% | percent of control binding at 10 µM (YANK3; [5]): 85% | percent of control binding at 10 µM (AMPK-alpha2; [5]): 94% | percent of control binding at 10 µM (MKNK1; [5]): 100% | percent of control binding at 10 µM (ACVR1; [5]): 95% | percent of control binding at 10 µM [1, 5]: 100% | percent of control binding at 10 µM (AKT2; [5]): 84% | percent of control binding at 10 µM (PLK1; [5]): 89% | percent of control binding at 10 µM (PRKD3; [5]): 89% | percent of control binding at 10 µM (LIMK1; [5]): 99% | percent of control binding at 10 µM (PIK3CB; [5]): 100%
Compound: Cn1ncnc1[C@H]1c2n[nH]c(=O)c3cc(F)cc(c23)N[C@@H]1c1ccc(F)cc1 [Talazoparib]
